Test [1] has as its system adenosine uptake in HEK293 cells. Put plainly: Adenosine uptake inhibitory activity in HEK293 cells ([3H]adenosine uptake). The test is classed as cell-based. The note with it: Homo sapiens, 1 min, [3H]adenosine uptake relative to 100% of control, HEK293 cells; for activity at 0.05 µM: 50 nmol/L compound, n=2; for activity at 0.5 µM: 500 nmol/L compound. The protocol:
A test was conducted according to the method of Leung et al. [Biochemical Pharmacology, Vol. 70, pp. 355-362 (2005)]. HEK293 cells (ATCC, Registration No. CRL-1537) were subcultured in a Dulbecco's modified Eagle's medium (manufactured by Invitrogen Corporation) containing 10% of fatal calf serum in a CO2 incubator using a poly-L-lysine-coated 10-cm dish (manufactured by Asahi Techno Glass Corporation). The cultured cells were seeded in a poly-L-lysine-coated 24-well plate (manufactured by Asahi Techno Glass Corporation) and cultured until the cells become confluent. […] After incubation at room temperature for 15 minutes, 0.2 mL of a Na^+-free buffer containing 100 nmol/L of [^3H] adenosine (manufactured by GE Health Care Bioscience Corporation) and each compound at each of 50 nmol/L and 500 nmol/L was added to each well. After 1 minute, the reaction solution was removed with an aspirator, and the wells were washed twice with 0.5 mL of ice-cooled PBS (phosphate-buffered saline). Then, 0.5 mL of PBS containing 5% Triton X-100 was added to each well, and the cells were scraped with a scraper. The solution in each well was homogenized by passing through a 20 G injection needle ten times and transferred to a scintillation vial containing 4 mL of clear sol (manufactured by Nacalai Tesque Inc.). Further, the wells were washed with 0.5 mL of PBS containing 5% Triton X-100, and the washing solution was added to the same vial. After sufficient agitation, radioactivity was measured using a liquid scintillation counter (Aloka Co., Ltd., LSC-3500). A relative value to 100% of an uptake of a control was indicated by percentage.

The test system of test [2] is restraint stress-induced defecation. Put plainly: Action on restraint stress-induced defecation. Format: in vivo, male Wistar rats. The note with it: 10 mg/kg p.o. 1 hour before restraint stress; measured 1 hour after stress initiation; rats, n=10; control of each sub-table 1.06-1.71 g. The protocol: An experiment was carried out according to the method of Kishibayashi et al. [Japanese Journal of Pharmacology, Vol. 69, No. 4, pp. 495-502 (1993)]. In the experiment, male Wistar rats aged 6 to 7 weeks (supplied from Charles River Laboratories Japan, Inc.) were used. […] The rats were lightly anesthetized with diethyl ether, and the thoracic trunk and the forelimbs were wrapped with a tape to produce mild stress. One hour after stress initiation, the wet weight of fecal pellets was measured. Each drug solution was orally administered 1 hour before restraint stress. A test compound was suspended at a concentration of 2 mg/mL in an aqueous solution of 0.5 w/v % methyl cellulose 400 cP and orally administered at a volume of 5 mL/kg (at a dose of 10 mg/kg). In a control, an aqueous solution of 0.5 w/v % methyl cellulose 400 cP was administered. Ten rats were used in each group. […] YM060, a serotonin 5-HT3 receptor antagonist [The Journal of Pharmacology and Experimental Therapeutics, Vol. 259, No. 2, pp. 815-819 (1991), Astellas Pharma. Inc., online, internet (URL: […].com/jp/companry/news/2006/pdf/060131.pdf)], which is being applied as a therapeutic agent for irritable bowel syndrome, was administered at a dose of 0.1 mg/kg.

Molecules are shown by their SMILES.

With `O=C1c2sccc2CS(=O)(=O)c2cccc(Nc3ccccc3)c21` [Compound 5-1, 5,5-Dioxo-9-phenylamino-4,10-dihydrothieno[3,2-c][1]benzothiepin-10-one], in test [1], the activity at 0.05 µM was 91% and the activity at 0.5 µM was determined as 60%. Besides, the “Wet weight of fecal pellets” value in test [2] came out at 0.36 ± 0.16 g.
As for `O=C1c2sccc2CS(=O)(=O)c2cccc(Nc3cc(Cl)ccc3O)c21` [Compound 5-2, 9-(5-Chloro-2-hydroxyphenylamino)-5,5-dioxo-4,10-dihydrothieno[3,2-c][1]benzothiepin-10-one], in test [1], the activity at 0.05 µM was found to be 80% and the activity at 0.5 µM stood at 44%. Besides, the “Wet weight of fecal pellets” value in test [2] came to 0.46 ± 0.18 g.
As for `O=C1c2sccc2CS(=O)(=O)c2cccc(NCc3ccccc3)c21` [Compound 5-3, 9-Benzylamino-5,5-dioxo-4,10-dihydrothieno[3,2-c][1]benzothiepin-10-one], in test [1], the activity at 0.05 µM was 63% and the activity at 0.5 µM was 30%. Besides, in test [2], the “Wet weight of fecal pellets” value is listed as 0.41 ± 0.17 g.

The values are drawn from patent publication US20100267796A1, “THERAPEUTIC AGENT FOR IRRITABLE BOWEL SYNDROME” (KYOWA HAKKO KOGYO CO., LTD., priority 2006, published 2010).
